Patent publication US6713247B1, “Human CNS cell lines and methods of use therefor” (Signal Pharmaceuticials, Inc., priority 1996, dated 2004)

Tests used:
clone C10 = assay: Effects of EGF and PDGF on proliferation and survival, clone C10; assay type: cell-based, human; settings: EGF 40 ng/mL, PDGF 20 ng/mL
Procedure: (§1) EGF and PDGF Enhance Proliferation Rate and Cell Survival. To facilitate the expansion of the human CNS clones, we identified factors that increase the proliferation rate and/or cell survival. To examine the effects of EGF and PDGF on the proliferation and survival of the human CNS clones, 40 ng/mL EGF, 20 ng/mL PDGF or both were added to the standard growth medium, which already contained FGF-2 and 50% CM, and total cell number and BrdU uptake and incorporation were assessed as described above. For clone C2, EGF or PDGF addition increased the total cell number (FIG. 11A) by approximately 2-fold. This increase in cell number was due to enhanced cell viability (decreased cell death), since there were only slight increases in proliferation rate (assessed by BrdU uptake and incorporation, FIG. 11B). […] In the case of clone C10, EGF (but not PDGF) addition increased the total cell number (FIG. 12A) by approximately 40%. […] This increase in cell number was due, at least in part, to enhanced proliferation rates; BrdU uptake and incorporation increase about 2-fold with EGF or EGF+PDGF addition (FIG. 12B), and doubling times (based on cell counts as a function of days in vitro, data not shown) decreased from 3 days (no EGF or PDGF addition) to 2 days (EGF+PDGF addition). […]

clone C2 = assay: Effects of EGF and PDGF on proliferation and survival, clone C2; assay type: cell-based, human; settings: added to growth medium with FGF-2 and 50% CM, EGF 40 ng/mL, PDGF 20 ng/mL
Procedure: as §1

clone E5 = assay: Immunoreactivity of clone E5; assay type: cell-based, human; settings: clone E5, after differentiation
Source text: Clone E5 is an immature multi-potent cell. Clone E5 is multi-potential and likely represents an immortalized stem cell.

clone B4 = assay: Immunoreactivity of clone B4 (BrdU, v-myc, MAP2a/b, GFAP, tau, NR1); assay type: cell-based, human
Source text: (§2) To promote further neuronal maturation the effects of additional differentiating agents on clone B4 were examined.

Human CNS Line B4 = assay: Effects of growth conditions on neuronal differentiation (morphology), Human CNS Line B4 (Table 3); assay type: cell-based; settings: clone B4, added to tet
Source text: as §2

Source text for differentiated clone B4: B4 cells were differentiated by growth with tet+RA for 1 day, followed by tet, high K^+, NT-3 and BDNF for 6 days.

Compound: PDGF: human recombinant platelet derived growth factor A/B
- effect on total cell number (clone C10): not
- increase in total cell number (clone C2): approximately 2 fold

Compound: CN(C)[C@@H]1C(O)=C(C(N)=O)C(=O)[C@@]2(O)C(O)=C3C(=O)c4c(O)cccc4[C@@](C)(O)[C@H]3C[C@@H]12 [tetracycline]
- cells stained for GFAP (clone E5): about 20%
- cells stained for MAP2a/b (clone E5): about 50%

Compound: Z-Val-Ala-Asp-Ch2F [Z-VAD, reference compound]
- effect on TNFα-induced increase in DNA laddering (differentiated clone B4; Z-VAD at 80 μM, TNFα 10 ng/mL): blocked the increase in DNA laddering

Compound: TNFα
- DNA laddering upon gel analysis (differentiated clone B4; TNFα 10 ng/mL): increased DNA laddering
- percentage of apoptotic nuclei (differentiated clone B4; TNFα 10 ng/mL): increased
- effect on neuronal viability (differentiated clone B4; TNFα 0.05 or 0.2 ng/mL): little effect on neuronal viability

Compound: CCCCCCCCCCCCCC(=O)O[C@@H]1[C@@H](C)[C@@]2(O)[C@@H](C=C(CO)C[C@]3(O)C(=O)C(C)=C[C@@H]23)[C@@H]2C(C)(C)[C@]12OC(C)=O [PMA, phorbol 12-myristate 13-acetate]
- effect on cell lineage (MAP2a/b and GFAP immunoreactivities) (clone B4): strongly promoted astrocytic differentiation
- effect on neuronal differentiation (morphology and immunocytochemical staining) (Human CNS Line B4): prevented tet from inducing neuronal differentiation
